Test results reported in ChEMBL document CHEMBL2439971, “Design, synthesis and antiproliferative evaluation of fluorenone analogs with DNA topoisomerase I inhibitory properties” (Bioorg Med Chem, 2013).
Activity calls are given as the source filed them. The calls are words filed in the database; no cut-off is given here.

Assays:
Homo sapiens = organism: Homo sapiens; assay: Inhibition of telomerase (unknown origin) at 10 uM TRAP assay
PC-3 = assay: Cytotoxicity against human PC3 cells after 48 hrs by sulforhodamine B assay; type: functional, cell-based; conditions: PC-3, 48 h

| inhibition (Homo sapiens) | Compound | IC50 (PC-3) |
| --- | --- | --- |
| inactive | CC(C)SCC(=O)Nc1ccc2c(c1)C(=O)c1cc(NC(=O)CSC(C)C)ccc1-2 | > 30 µM |
| inactive | O=C(CCNCCO)Nc1ccc2c(c1)C(=O)c1cc(NC(=O)CCNCCO)ccc1-2 | 19.2 µM |
| inactive | CC(C)NCCC(=O)Nc1ccc2c(c1)C(=O)c1cc(NC(=O)CCNC(C)C)ccc1-2 | 10 µM |
| inactive | O=C(CSCCO)Nc1ccc2c(c1)C(=O)c1cc(NC(=O)CSCCO)ccc1-2 | > 30 µM |
| inactive | CC(C)SCCC(=O)Nc1ccc2c(c1)C(=O)c1cc(NC(=O)CCSC(C)C)ccc1-2 | > 30 µM |
| inactive | CC(C)NCC(=O)Nc1ccc2c(c1)C(=O)c1cc(NC(=O)CNC(C)C)ccc1-2 | 6.19 µM |
| inactive | O=C(CCCl)Nc1ccc2c(c1)C(=O)c1cc(NC(=O)CCCl)ccc1-2 | > 30 µM |
| inactive | CCSCC(=O)Nc1ccc2c(c1)C(=O)c1cc(NC(=O)CSCC)ccc1-2 | > 30 µM |
| inactive | CCCCNCCC(=O)Nc1ccc2c(c1)C(=O)c1cc(NC(=O)CCNCCCC)ccc1-2 | 26.9 µM |
| inactive | CC(C)CNCC(=O)Nc1ccc2c(c1)C(=O)c1cc(NC(=O)CNCC(C)C)ccc1-2 | > 30 µM |
| inactive | O=C(CCl)Nc1ccc2c(c1)C(=O)c1cc(NC(=O)CCl)ccc1-2 | 0.55 µM |
| inactive | O=C(CCN1CCCCC1)Nc1ccc2c(c1)C(=O)c1cc(NC(=O)CCN3CCCCC3)ccc1-2 | 6.26 µM |
| inactive | O=C(CN1CCCCC1)Nc1ccc2c(c1)C(=O)c1cc(NC(=O)CN3CCCCC3)ccc1-2 | > 30 µM |
| inactive | O=C(CCN1CCCC1)Nc1ccc2c(c1)C(=O)c1cc(NC(=O)CCN3CCCC3)ccc1-2 | 6.06 µM |
| inactive | CCCSCCC(=O)Nc1ccc2c(c1)C(=O)c1cc(NC(=O)CCSCCC)ccc1-2 | > 30 µM |
| inactive | Nc1ccc2c(c1)C(=O)c1cc(N)ccc1-2 | > 30 µM |
| inactive | CCCNCCC(=O)Nc1ccc2c(c1)C(=O)c1cc(NC(=O)CCNCCC)ccc1-2 | 20.8 µM |
| inactive | O=C(CN1CCOCC1)Nc1ccc2c(c1)C(=O)c1cc(NC(=O)CN3CCOCC3)ccc1-2 | > 30 µM |
| inactive | O=C(CNCCO)Nc1ccc2c(c1)C(=O)c1cc(NC(=O)CNCCO)ccc1-2 | > 30 µM |

| Compound | inhibition (Homo sapiens) | IC50 (PC-3) |
| --- | --- | --- |
| O=C1c2cc([N+](=O)[O-])ccc2-c2ccc([N+](=O)[O-])cc21 | inactive | > 30 µM |
